Source: PMC7802075 (ACS Infectious Diseases, 2020)
Read-outs that look alike come from different tables or passages of the source.

Columns and labels:
[1] = tested on: L. major (FV1) promastigotes; assay: Antipromastigote resazurin assay, L. major (FV1) wild type; assay type: cell-based, Leishmania major; conditions: for EC50: L. major (FV1), read-out: EC50 against L. major promastigotes
[2] = biological target: T1, LmjIPCS (inositol phosphorylceramide synthase from L. major) (Leishmania major, UniProt E9AFX2); assay: biochemical; assay type: biochemical
T1 sequence (E9AFX2 1-338): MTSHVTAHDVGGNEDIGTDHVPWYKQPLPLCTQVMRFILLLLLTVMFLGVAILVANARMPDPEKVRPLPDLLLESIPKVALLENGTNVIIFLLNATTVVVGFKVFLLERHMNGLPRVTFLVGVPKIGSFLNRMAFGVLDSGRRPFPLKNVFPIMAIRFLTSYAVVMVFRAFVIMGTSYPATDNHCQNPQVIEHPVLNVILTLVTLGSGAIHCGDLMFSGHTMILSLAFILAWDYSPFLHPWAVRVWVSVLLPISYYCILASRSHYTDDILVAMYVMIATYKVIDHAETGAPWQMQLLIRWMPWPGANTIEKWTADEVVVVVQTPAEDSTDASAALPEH

[3] = L. major promastigotes, dose response
[4] = Leishmania major, secondary dose response
[5] = NINDS set screen against L. major promastigotes, single concentration printed as 10mM
[6] = NINDS set screen, single concentration printed as 20mM

CN1[C@@H]2CC[C@H]1C[C@@H](OC(c1ccccc1)c1ccccc1)C2 [BENZTROPINE]
10mM inhibition L. major [1]: <5%

CN1CCN(CCCN2c3ccccc3Sc3ccc(C(F)(F)F)cc32)CC1 [trifluoperazine 16, trifluoperazine, reference compound]
ED50 vs L. major [1, 3]: 7170 µM | EC50 [1, 4]: > 1 µM | 10mM inhibition L. major [1, 5]: 67% | 20mM inhibition LmjIPCS [2]: 86% | IC50 [2]: 5.03 µM | LmjIPCS inhibition ([2]; secondary dose response): confirmed

CCOC(=O)C1=C(COCCN)NC(C)=C(C(=O)OC)C1c1ccccc1Cl (centres unmarked) [amlodipine 2, amlodipine, reference compound]
ED50 vs L. major [1, 3]: 1910 µM | EC50 [1, 4]: > 1 µM | 10mM inhibition L. major [1, 5]: 62% | 20mM inhibition LmjIPCS [2]: 80% | IC50 [2]: 3 µM | LmjIPCS inhibition ([2]; secondary dose response): confirmed

Clc1ccc(COC(Cn2ccnc2)c2ccc(Cl)cc2Cl)c(Cl)c1 (centres unmarked) [MICONAZOLE]
10mM inhibition L. major [1]: <5%

CCC(=O)O[C@H]1CC[C@H]2[C@@H]3CCc4cc(O)ccc4[C@H]3CC[C@]12C [ESTRADIOL PROPIONATE]
10mM inhibition L. major [1, 5]: <5% | 20mM inhibition LmjIPCS [2, 6]: 74%

CCCc1cc(=O)[nH]c(=S)[nH]1 [PROPYLTHIOURACIL]
10mM inhibition L. major [1]: <5% | 20mM inhibition LmjIPCS [2]: 73%

Cc1cc(N)c2ccccc2[n+]1CCCCCCCCCC[n+]1c(C)cc(N)c2ccccc21
10mM inhibition L. major [1, 5]: <5% | 20mM inhibition LmjIPCS [2]: 72%

CCN(CCCc1ccccc1)CCCc1ccccc1 [ALVERINE]
10mM inhibition L. major [1, 5]: <5% | 20mM inhibition LmjIPCS [2, 6]: 70%

CN(C)CCC=C1c2ccccc2CCc2ccccc21 [AMITRIPTYLINE]
10mM inhibition L. major [1, 5]: <5% | 20mM inhibition LmjIPCS [2]: 82%

COc1ccccc1OCCNCC(O)COc1cccc2[nH]c3ccccc3c12 (centres unmarked) [CARVEDILOL]
10mM inhibition L. major [1, 5]: <5% | 20mM inhibition LmjIPCS [2]: 73%

CCc1nc(N)nc(N)c1-c1ccc(Cl)cc1 [PYRIMETHAMINE]
10mM inhibition L. major [1, 5]: <5% | 20mM inhibition LmjIPCS [2, 6]: 77%

CC(CN(C)C)CN1c2ccccc2Sc2ccccc21 (centres unmarked) [TRIMEPRAZINE]
10mM inhibition L. major [1, 5]: <5% | 20mM inhibition LmjIPCS [2]: 71%

CCN(CC)CCOc1ccc(C(=C(Cl)c2ccccc2)c2ccccc2)cc1 [clomiphene 4, clomiphene, reference compound]
10mM inhibition L. major [1]: 65% | ED50 vs L. major [1]: 6570 µM

GINKGOLIC ACID
10mM inhibition L. major [1, 5]: <5% | 20mM inhibition LmjIPCS [2]: 73%

Cc1cc(C(C)(C)C)c(O)c(C)c1CC1=NCCN1 [OXYMETAZOLINE]
10mM inhibition L. major [1, 5]: <5% | 20mM inhibition LmjIPCS [2, 6]: 75%

CO[C@]12C[C@@H](COC(=O)c3cncc(Br)c3)CN(C)[C@@H]1Cc1cn(C)c3cccc2c13 [NICERGOLINE]
10mM inhibition L. major [1, 5]: <5% | 20mM inhibition LmjIPCS [2]: 80%

CNCCC=C1c2ccccc2CCc2ccccc21 [NORTRIPTYLINE]
10mM inhibition L. major [1]: <5% | 20mM inhibition LmjIPCS [2]: 81%

CN[C@H]1CC[C@@H](c2ccc(Cl)c(Cl)c2)c2ccccc21 [sertraline 13, sertraline, reference compound]
ED50 vs L. major [1]: 14580 µM

Cc1cccc(CN2CCN(C(c3ccccc3)c3ccc(Cl)cc3)CC2)c1 (centres unmarked) [MECLIZINE]
10mM inhibition L. major [1, 5]: <5% | 20mM inhibition LmjIPCS [2]: 78%

CN1CCc2c(c3ccccc3n2Cc2ccccc2)C1 [MEBHYDROLIN]
10mM inhibition L. major [1, 5]: <5% | 20mM inhibition LmjIPCS [2, 6]: 72%

CC(C)NCC(O)COc1cccc2ccccc12 (centres unmarked) [propranolol 12, propranolol, reference compound]
10mM inhibition L. major [1]: 84% | ED50 vs L. major [1]: 4910 µM

Fc1ccc(C(c2ccc(F)cc2)N2CCN(C/C=C/c3ccccc3)CC2)cc1 [flunarizine 7, flunarizine, reference compound]
10mM inhibition L. major [1]: 56% | ED50 vs L. major [1]: 1730 µM

O=C1c2c(O)cccc2Cc2cccc(O)c21 [ANTHRALIN]
10mM inhibition L. major [1, 5]: <5% | 20mM inhibition LmjIPCS [2, 6]: 70%

COC1=C[C@@H](C)[C@@H]2C[C@H]3OC(=O)C[C@H]4C(C)=C(OC)C(=O)[C@H]([C@@]2(C)C1=O)[C@@]34C [QUASSIN]
inhibition of growth at 10000 µM ([1]; Leishmania major, NINDS set screen against L. major promastigotes, single concentration printed as 10mM): < 5% | 20mM inhibition LmjIPCS [2, 6]: 70%

C=C[C@H]1C[N@@]2CC[C@H]1C[C@H]2[C@H](O)c1ccnc2ccc(OC)cc12 [QUININE]
10mM inhibition L. major [1, 5]: <5% | 20mM inhibition LmjIPCS [2]: 70%

CCCCCCCCNC(C)C(O)c1ccc(SC(C)C)cc1 (centres unmarked) [suloctidil 15, suloctidil, reference compound]
ED50 vs L. major [1, 3]: 1330 µM | EC50 [1, 4]: > 1 µM | 10mM inhibition L. major [1, 5]: 74% | IC50 [2]: 3.67 µM | 20mM inhibition LmjIPCS [2, 6]: 81% | LmjIPCS inhibition ([2]; secondary dose response): confirmed

N=C1C=CC(=C(c2ccc(N)cc2)c2ccc(N)cc2)C=C1 [pararosaniline 8, pararosaniline]
ED50 vs L. major [1, 3]: 9780 µM | antileishmanial activity ([1]; L. major promastigotes, secondary dose response): poor antileishmanial activity | 10mM inhibition L. major [1, 5]: 75% | 20mM inhibition LmjIPCS [2]: 78% | IC50 ([2]; dose response, read-out: IC50 vs LmjIPCS): > 100 µM | IC50 against LmjIPCS ([2]; secondary dose response, commercially sourced samples): could not be determined

TANNIC ACID
10mM inhibition L. major [1, 5]: <5% | 20mM inhibition LmjIPCS [2]: 91%

C=CC1=C(C)c2cc3[nH]c(cc4nc(cc5[nH]c(cc1n2)c(C)c5CCC(=O)O)C(CCC(=O)O)=C4C)c(C)c3C=C [PROTOPORPHYRIN IX]
10mM inhibition L. major [1, 5]: <5% | 20mM inhibition LmjIPCS [2, 6]: 77%

CCCCOc1ccc(OCCCN2CCOCC2)cc1 [PRAMOXINE]
10mM inhibition L. major [1, 5]: <5% | 20mM inhibition LmjIPCS [2]: 71%

CCCCC(CC)CN1CN(CC(CC)CCCC)CC(C)(N)C1 (centres unmarked) [HEXETIDINE]
10mM inhibition L. major [1, 5]: <5% | 20mM inhibition LmjIPCS [2, 6]: 85%

CC(NCCC(c1ccccc1)c1ccccc1)c1ccccc1 (centres unmarked) [fendiline 6, fendiline, reference compound]
ED50 vs L. major [1, 3]: 7640 µM | EC50 [1, 4]: > 1 µM | 10mM inhibition L. major [1, 5]: 74% | IC50 [2]: 4.22 µM | 20mM inhibition LmjIPCS [2, 6]: 71% | LmjIPCS inhibition ([2]; secondary dose response): confirmed

O=c1[nH]c2ccccc2n1C1CCN(CCCC(c2ccc(F)cc2)c2ccc(F)cc2)CC1 [pimozide 10, pimozide, reference compound]
ED50 vs L. major [1, 3]: 22900 µM | EC50 [1, 4]: > 1 µM | 10mM inhibition L. major [1, 5]: 56% | 20mM inhibition LmjIPCS [2]: 77% | IC50 [2]: 4.14 µM | LmjIPCS inhibition ([2]; secondary dose response): confirmed

CCN1C[C@]2(COC)[C@H](O)C[C@H](OC)[C@@]34[C@@H]5C[C@@]6(O)[C@H](OC(=O)c7ccccc7)[C@@H]5[C@@](OC(C)=O)([C@@H]([C@H](OC)[C@H]23)[C@@H]14)[C@@H](O)[C@@H]6OC [ACONITINE]
10mM inhibition L. major [1, 5]: <5% | 20mM inhibition LmjIPCS [2]: 97%

CC(C)CC(N(C)C)C1(c2ccc(Cl)cc2)CCC1 (centres unmarked) [SIBUTRAMINE]
10mM inhibition L. major [1, 5]: <5% | 20mM inhibition LmjIPCS [2]: 74%

CN(C)CCCN1c2ccccc2CCc2ccccc21 [IMIPRAMINE]
10mM inhibition L. major [1, 5]: <5%

CN1CCN(CCCN2c3ccccc3Sc3ccc(Cl)cc32)CC1 [prochlorperazine edisylate 11, prochlorperazine edisylate, reference compound]
10mM inhibition L. major [1]: 11% | ED50 vs L. major [1]: 12900 µM

CN(C)CCC=C1c2ccccc2COc2ccccc21 [doxepin 5, doxepin, reference compound]
10mM inhibition L. major [1]: 44% | ED50 vs L. major [1]: 30000 µM

CC(C)NC[C@@H](O)COc1cccc2ccccc12 [DEXPROPRANOLOL]
10mM inhibition L. major [1]: <5%

CNCCCC12CCC(c3ccccc31)c1ccccc12 [MAPROTILINE]
10mM inhibition L. major [1]: <5%
